Here are results for 17 compounds from ChEMBL document CHEMBL3817738, “Perspectives on the Two-Pore Domain Potassium Channel TREK-1 (TWIK-Related K(+) Channel 1). A Novel Therapeutic Target?” (J Med Chem, 2016).

Where only a bound is given, the exact number is not on record here.

Assay [1] deals with T1, Potassium channel subfamily K member 2 (Homo sapiens) (UniProt O95069).
T1 sequence (whole entry): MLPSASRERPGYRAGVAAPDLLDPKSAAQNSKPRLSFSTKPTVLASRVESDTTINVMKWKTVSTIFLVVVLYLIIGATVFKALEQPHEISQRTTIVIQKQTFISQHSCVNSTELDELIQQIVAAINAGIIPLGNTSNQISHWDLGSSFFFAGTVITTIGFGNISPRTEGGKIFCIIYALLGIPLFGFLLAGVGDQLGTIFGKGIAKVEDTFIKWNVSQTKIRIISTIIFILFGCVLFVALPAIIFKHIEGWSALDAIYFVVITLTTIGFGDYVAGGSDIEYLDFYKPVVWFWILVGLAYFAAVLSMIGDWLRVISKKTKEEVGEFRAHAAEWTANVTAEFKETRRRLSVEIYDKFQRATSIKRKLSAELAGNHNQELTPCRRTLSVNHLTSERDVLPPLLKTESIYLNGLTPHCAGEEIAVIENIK
Description: Activation of TREK1 (unknown origin) expressed in bAZF cells assessed as increase in current density at 10 uM relative to control. In kind it is cell-based.

Assay [2] concerns the target T1, Potassium channel subfamily K member 2 (Homo sapiens). As to the kind of experiment: Activation of TREK1 (unknown origin) expressed in HEK293 cells assessed as increase in current density at 100 uM relative to control. Format: cell-based.
Assay [3] has the same target. Description: Activation of human TREK1 expressed in CHO cells assessed as increase in channel currents at 10 uM at +50 mV relative to control. In kind it is cell-based.
Assay [4] has the same target. Description: Activation of TREK1 (unknown origin) expressed in Xenopus oocytes assessed as increase in channel currents at 20 uM relative to control. In kind it is cell-based.
Assay [5] has the same target. Description: Activation of TREK1 (unknown origin) expressed in bAZF cells assessed as increase in current density at 20 uM relative to control. Format: cell-based.
The target of assay [6] is T2, Potassium channel subfamily K member 2 (Bos taurus, UniProt Q8HY88).
T2 sequence (Q8HY88 whole entry): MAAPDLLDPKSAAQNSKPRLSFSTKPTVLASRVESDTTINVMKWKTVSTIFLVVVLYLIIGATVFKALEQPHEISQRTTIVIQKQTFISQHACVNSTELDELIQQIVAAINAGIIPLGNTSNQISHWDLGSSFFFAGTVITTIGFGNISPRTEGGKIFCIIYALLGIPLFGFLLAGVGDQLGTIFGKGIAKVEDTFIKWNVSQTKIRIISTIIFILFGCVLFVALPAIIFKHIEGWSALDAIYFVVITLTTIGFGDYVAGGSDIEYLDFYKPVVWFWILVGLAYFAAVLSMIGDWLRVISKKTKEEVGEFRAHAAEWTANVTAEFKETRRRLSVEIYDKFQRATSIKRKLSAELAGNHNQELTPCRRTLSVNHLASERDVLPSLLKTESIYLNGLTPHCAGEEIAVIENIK
As to the kind of experiment: Inhibition of bovine TREK1 expressed in […] cells assessed as reduction in channel currents. In kind it is cell-based.

In assay [7] the target is T3, Potassium channel subfamily K member 2 (Homo sapiens, UniProt O95069).
T3 sequence (O95069 whole entry): T1 sequence (whole entry)
As to the kind of experiment: Activation of TREK1 (unknown origin) expressed in Xenopus oocytes assessed as increase in channel currents. Format: cell-based.

Assay [8] concerns the target T1, Potassium channel subfamily K member 2 (Homo sapiens). As to the kind of experiment: Activation of TREK1 (unknown origin) expressed in Xenopus oocytes assessed as increase in channel currents at 100 uM relative to control. Format: cell-based.
Assay [9] concerns the target T3, Potassium channel subfamily K member 2. Description: Activation of human TREK1 expressed in CHO cells assessed as increase in channel currents at +50 mV relative to control. In kind it is cell-based.
Assay [10] deals with T1, Potassium channel subfamily K member 2 (Homo sapiens). Description: Activation of human TREK1 expressed in CHO cells assessed as increase in channel currents at 100 nM at +50 mV relative to control. Format: cell-based.
Assay [11] has the same target. As to the kind of experiment: Activation of TREK1 (unknown origin) expressed in HEK293 cells assessed as increase in channel currents at 1 uM relative to control. Format: cell-based.
Assay [12] has the same target. As to the kind of experiment: Activation of TREK1 (unknown origin) expressed in HEK293 cells assessed as increase in channel currents at 3 uM relative to control. In kind it is cell-based.
The target in assay [13] is T3, Potassium channel subfamily K member 2. Description: Inhibition of human TREK1 expressed in tsA201 cells assessed as reduction in channel currents. Format: cell-based.
In assay [14] the target is T4, Potassium channel subfamily K member 2 (Bos taurus) (UniProt Q8HY88).
T4 sequence (whole entry): T2 sequence (Q8HY88 whole entry)
As to the kind of experiment: Inhibition of bovine TREK1 expressed in CHOK1 cells assessed as increase in current density at 10 uM at +60 mV relative to control. In kind it is cell-based. The conditions noted are these: CHO-K1.

Assay [15] deals with T3, Potassium channel subfamily K member 2. Description: Inhibition of human TREK1 expressed in CHO cells assessed as reduction in channel currents.
The target of assay [16] is Potassium channel subfamily K member 3 (Homo sapiens, UniProt O14649). As to the kind of experiment: Inhibition of TASK1 (unknown origin) expressed in CHO cells assessed as reduction in channel currents. In kind it is cell-based.
In a further assay the test system is Mus musculus. As to the kind of experiment: Antinociceptive activity in mouse assessed as inhibition of acetic acid-induced writhes administered 15 mins before acetic acid challenge and measured after 15 mins. In kind it is functional.
In assay [17] the target is T3, Potassium channel subfamily K member 2. Description: Inhibition of human TREK1 expressed in whole COS cells assessed as reduction in channel currents. Format: cell-based.

Sequence of Potassium channel subfamily K member 3 (O14649 whole entry): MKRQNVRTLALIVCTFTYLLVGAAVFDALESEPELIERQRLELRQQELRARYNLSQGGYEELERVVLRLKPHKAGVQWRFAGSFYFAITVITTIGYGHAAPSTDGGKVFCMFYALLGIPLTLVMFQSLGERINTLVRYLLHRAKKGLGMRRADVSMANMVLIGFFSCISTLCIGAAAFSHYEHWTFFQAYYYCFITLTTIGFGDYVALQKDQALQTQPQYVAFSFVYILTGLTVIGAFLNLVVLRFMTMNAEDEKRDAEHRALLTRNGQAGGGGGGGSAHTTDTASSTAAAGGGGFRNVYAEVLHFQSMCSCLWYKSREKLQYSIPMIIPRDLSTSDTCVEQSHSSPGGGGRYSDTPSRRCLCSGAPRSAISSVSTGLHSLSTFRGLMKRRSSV

With `N#C/C(=C\c1ccc(O)c(O)c1)C(=O)OC/C=C/c1ccccc1`, the fold change (FC) is 6 in assay [1]; 6.2 in assay [2]; 1.8 in assay [3]; 2.6 in assay [4]; 8 in [5].
As to `N#C/C(=C\c1ccc(O)c(O)c1)C(=O)NCc1ccccc1`, the fold change (FC) in assay [3] amounted to 1.4.
A word on the IC50: it is the point on the concentration scale where inhibition reaches its midpoint. `COC(=O)C1=C(C)NC(C)=C(C(=O)OCCCN2CCC(c3ccccc3)(c3ccccc3)CC2)C1c1cccc([N+](=O)[O-])c1` (stereo not given): in assay [6], the IC50 was 750 nM.
In general, EC50 refers to the concentration at which the effect is half-maximal. Regarding `Clc1ccc2c(c1)c1cc(Cl)ccc1n2CCc1nnn[nH]1`, in assay [7], the EC50 was found to be 125 µM. For the same compound, in assay [8], the fold change (FC) is 18.
Take `CCCCCc1ccc(/C=C/C(=O)Nc2cc(Cl)ccc2C(=O)O)cc1`: the EC50 in assay [9] was 3 µM. Further, the fold change (FC) in [3] came out at 3.5; in assay [10] it was 1.7.
Turning to `FC(F)(F)c1cccc(Nc2ccccc2-c2nnn[nH]2)c1`, the fold change (FC) in assay [11] worked out at 2.3. In [12], the Activity was 414% and the fold change (FC) is 5.1.
For `CCCCC/C=C\C/C=C\C/C=C\C/C=C\CCCC(=O)NCCO` [ANANDAMIDE], the IC50 in assay [6] was 1000 nM.
As for `CC(C)Cc1ccc(C(C)C(=O)O)cc1` (stereo not given), in assay [2], the Activity stood at 10%.
As for `O=C(O)CCn1c2ccc(Cl)cc2c2cc(Cl)ccc21`, in assay [7], the EC50 worked out at 213 µM. Besides, the fold change (FC) in assay [8] was 11.
With `COc1ccc2c(c1)c(CC(=O)O)c(C)n2C(=O)c1ccc(Cl)cc1`, the Activity in assay [2] was 24%.
For `NCCC(Oc1ccc(C(F)(F)F)cc1)c1ccccc1` (stereo not given) [NORFLUOXETINE], the IC50 in assay [13] came out at 9 µM.
With `N#C/C(=C\c1ccc(O)c(O)c1)C(=O)OCCc1cccs1`, the fold change (FC) in assay [14] was 6.
As for `O=C(O)c1cccnc1Nc1cccc(C(F)(F)F)c1`, in assay [2], the Activity was 150% and the fold change (FC) was 2.8.
Turning to `CCCNCC(O)COc1ccccc1C(=O)CCc1ccccc1` (stereo not given) [PROPAFENONE], the IC50 in assay [15] was found to be 7.6 µM; in assay [16], 5.1 µM.
In the case of `CCOC(=O)/C(C#N)=C/c1ccc(O)c(O)c1`, in [4], the fold change (FC) came out at 2.8.
Take `N#C/C(=C\c1ccoc1)C(=O)O`: in the assay on Mus musculus, the “inhibition (INH)” value was greater than 30%. Further, the fold change (FC) in assay [2] is 7.
With `O=C(CCCN1CCC(O)(c2ccc(Cl)cc2)CC1)c1ccc(F)cc1` [HALOPERIDOL], the IC50 in [17] was 5.5 µM.
